Data taken from patent US20250221997A1, “TYK2 INHIBITOR FORMULATIONS AND METHODS OF MAKING THE SAME” (Takeda Pharmaceutical Company Limited, priority 2022, published 2025).
≈ marks a conversion by molar mass, not a printed value. Entries after “also recorded” stand apart in the source; their conditions may differ. Values belong to the compound of their own block, whether it stands above or below them.

Tests used:
Type in all cases: physicochemical
[1] = pKa, dissociation constant and pH of saturated aqueous solution; details: read-out: pKa of the protonated form
Method: The pKa of the protonated form of Compound 1 was determined to be 1.94±0.01. The pH of a saturated aqueous solution of Compound 1 was 8.6.

[2] = Solubility of drug substance in excipient Vitamin E TPGS
Text: Vitamin E TPGS is a commercially available, non-ionic surfactant, derived from Vitamin E. It is commonly used to enhance the bioavailability of orally administered poorly water-soluble drugs.

[3] = Solubility of Compound 1 polymorphs in aqueous systems, buffer solutions and biorelevant media; details: for Aqueous Solubility: Form C Lot: a, Form A Lot: b
[4] = Hygroscopicity (water sorption vs relative humidity)
[5] = Polymorph screening, competitive slurry studies and humidity storage (form stability)
Text: The key formulation challenge presented by Compound 1 was poor aqueous solubility. This could possibly limit absorption in vivo.

pKa [1]: 1.94
solubility in the excipient Vitamin E TPGS [2]: high solubility
solubility at 48 h ([3]; FaSSGF, pH 1.42, fassgf or other biorelevant, thermodynamic from solid): 34.6 µg/mL (≈ 75.1 µM)
solubility at 48 h ([3]; aqueous buffer, thermodynamic from solid, Initial Buffer pH 2.98, pH at 48 Hours 3.01, average of two runs): 18.9 µg/mL (≈ 41 µM)
solubility at 48 h ([3]; aqueous buffer, thermodynamic from solid, Initial Buffer pH 4.46, pH at 48 Hours 4.49, average of two runs): 13.3 µg/mL (≈ 28.9 µM)
solubility at 48 h ([3]; aqueous buffer, thermodynamic from solid, Initial Buffer pH 6.81, pH at 48 Hours 6.75, average of two runs): 4.1 µg/mL (≈ 8.9 µM)
solubility at 48 h ([3]; pH 8.6, thermodynamic from solid, Unbuffered water, pH at 48 Hours 8.6, average of three runs): 5.5 µg/mL (≈ 11.9 µM)
solubility at 48 h ([3]; simulated gastric fluid, thermodynamic from solid, Initial Buffer pH 1.21, pH at 48 Hours 1.19, average of two runs): 58.1 µg/mL (≈ 126 µM)
solubility at 48 h ([3]; thermodynamic from solid, FaSSIF (pH 1.64), pH at 48 Hours 1.50, average of two runs): 29.1 µg/mL (≈ 63.2 µM)
solubility at 48 h ([3]; thermodynamic from solid, FeSSIF (pH 5.03), pH at 48 Hours 5.03, average of two runs): 41 µg/mL (≈ 89 µM)
SMILES: CNc1cc(Nc2cccn(-c3ccccn3)c2=O)nc2c(C(=O)N[C@@H]3CC[C@H]3OC)cnn12 [Compound 1]

Hygroscopicity [4]: Limited hygroscopicity
Hygroscopicity, wt gain ([4]; at 75% RH): (1.75% wt gain at 75% RH)
water sorption ([4]; between 5-95% relative humidity): 1.75%
Conversion of Form C to Form A ([5]; in water itself after 1 day): not observed
water activity, aw, above which anhydrous Form C converts to hydrate Form A ([5]; solvent slurries): 0.62-0.82
Conversion of Form C to Form A ([5]; storage at 90% RH at room temperature for 11 days): no conversion to Form A was observed
Aqueous Solubility ([3]; 10 mM HCl, pH 2.0): 58 µg/mL
Aqueous Solubility ([3]; 50 mM Acetate buffer, pH 5.0): 13 µg/mL
Aqueous Solubility ([3]; 50 mM Phosphate buffer, pH 6.8): 4 µg/mL
solubility ([3]; FaSSIF, pH 6.5, fassif, thermodynamic from solid): 29 µg/mL (≈ 63 µM)
Aqueous Solubility ([3]; FaSSIF, pH 6.5): 29 µg/mL
Aqueous Solubility ([3]; FcSSIF, pH 5.0): 41 µg/mL
Aqueous Solubility ([3]; SGF, pH 1.2 (0.1% Triton X100)): 35 µg/mL
solubility ([3]; aqueous buffer, thermodynamic from solid, 50 mM Acetate buffer, pH 5.0): 13 µg/mL (≈ 28.2 µM)
solubility ([3]; aqueous buffer, thermodynamic from solid, 50 mM Phosphate buffer, pH 6.8): 4 µg/mL (≈ 8.69 µM)
solubility ([3]; aqueous with cosolvent or surfactant or cyclodextrin, thermodynamic from solid, SGF, pH 1.2 (0.1% Triton X100)): 35 µg/mL (≈ 76 µM)
solubility ([3]; simulated gastric fluid, thermodynamic from solid, 10 mM HCl, pH 2.0): 58 µg/mL (≈ 126 µM)
solubility ([3]; thermodynamic from solid, FeSSIF, pH 5.0): 41 µg/mL (≈ 89 µM)
SMILES: CNc1cc(Nc2cccn(-c3ccccn3)c2=O)nc2c(C(=O)N[C@@H]3CC[C@H]3OC)cnn12 [Form C]
relative stability of solid form ([5]; competitive slurry studies / polymorphs observed during development): most stable anhydrous, un-solvated form; also recorded: most stable polymorph observed to date
